Experimental data reported in patent US20110263454A1, “Methods of Identifying Functional Characteristics of Promoters, Transcription Modifying Proteins and Transcription Modulating Agents” (Salk Institute for Biological Studies, priority 2008, published 2011).

Key:
mPgc1b promoter = test: NHR-promoter luciferase screen, mPgc1b promoter; format: cell-based, mouse; details: for Luc. act., normalized to lacZ / Normalized Luc. act., normalized to control: PGC1b promoter reporter, co-transfected HR, without or with its ligand; for Normalized Luc. act., normalized to control: relative to control; for luciferase activity normalized to lacZ activity and to a control, mPgc1b: mPgc1b promoter-luciferase, CV-1 cells, NHR +/- ligand, control = 1.00
Protocol: Briefly, there were co-expressed 50 ng of each NHR/NHR homodimer or NHR/RXR heterodimer with 100 ng promoter/luciferase construct and 50 ng of LacZ (as a control for transfection efficiency) in CV-1 cells using Fugene HD (Roche) as a transfection reagent (alternatively or additionally, a CMV-YFP construct can be used as a transfection control). Each of the nuclear hormone receptors that were used in these experiments was cloned into a pcDNA3.1 vector and comprised a C-terminally linked V5H6 tag.
(§1) The promoters that facilitate transcription of the indicated gene products that were tested using the protocols described herein are listed in the first row of the table. The nuclear hormone receptors and, where applicable, ligands that were assayed for their transcriptional effects on the promoters are listed in the first column of the table. The data represent the luciferase activity of each sample normalized to both the lacZ activity of that sample and to a control, e.g., no NHR or ligand, as customary in the art. As described previously, these normalizations allow the transcriptional activity of each reporter cell to be compared to other samples.
(§2) Tables 7-40 show the transcriptional effects of the hormone receptors, and, where applicable, ligands (orphan receptors are screened without ligand), on each individual promoter. […] The control data of each table are shown in their last rows.

hPOMC promoter = test: NHR-promoter luciferase screen, hPOMC promoter; format: cell-based, human; details: for luciferase/LacZ, hPOMC (selected results): hPOMC promoter-luciferase, NHR +/- ligand, control = 1.0; for Luc. act., normalized to lacZ / Normalized Luc. act., normalized to control: hPOMC promoter, HR/ligand component; for hPOMC promoter reporter activity: transcription factor +/- ligand, control = 1.00
Protocol: (§3) The use, feasibility, and reproducibility of the functional NHR-promoter screen in a 48-well format have been tested validated. Briefly, there were co-expressed 50 ng of each NHR/NHR homodimer or NHR/RXR heterodimer with 100 ng promoter/luciferase construct and 50 ng of LacZ (as a control for transfection efficiency) in CV-1 cells using Fugene HD (Roche) as a transfection reagent (alternatively or additionally, a CMV-YFP construct can be used as a transfection control). Each of the nuclear hormone receptors that were used in these experiments was cloned into a pcDNA3.1 vector and comprised a C-terminally linked V5H6 tag. Twenty-four hours after transfection, appropriate ligands were added, where applicable, (see Table 5 for various ligands and concentrations and after 48 hrs, samples were assayed for luciferase and LacZ activity. To measure for luciferase activity 15 ul of sample was added to 30 ul of luciferase buffer (20 mM tricine, 1.07 mM MgCarbonate, 2.67 mM MgSulfate, 0.1 mM Naz-EDTA, 5 mM DTT, 5 mM ATP, 0.15 mg/ml CoA, 0.5 mM Luciferin), mixed briefly, and run in a Perkin Elmer Victor 5 luminometer. Thus, the functional NHR-promoter screen was used to observe the transcriptional activity of 29 promoters from various physiological pathways including inflammation, lipid and sugar metabolism, cholesterol transport, xenobiotic metabolism, and circadian rhythm.
as §1, §2

hMDR1 promoter = test: NHR-promoter luciferase screen, hMDR1 promoter; format: cell-based, human; details: for Luc. act., normalized to lacZ / Normalized Luc. act., normalized to control: MDR1 promoter, HR/ligand component; for hMDR1 promoter reporter activity: transcription factor +/- ligand, control = 1.00
Protocol: as §3, §1, §2

hTNFa promoter = test: NHR-promoter luciferase screen, hTNFa promoter; format: cell-based, human; details: for Luc. act., normalized to lacZ / Normalized Luc. act., normalized to control: TNFa promoter, HR component without or with ligand; for hTNFa promoter reporter activity: transcription factor +/- ligand, control = 1.00
Protocol: as §3, §1, §2

SREBP1c promoter = test: NHR-promoter luciferase screen, SREBP1c promoter; format: cell-based, mouse; details: for Luc. act., normalized to lacZ / Normalized Luc. act., normalized to control: SREBP1c promoter, HR component without or with ligand; for mSREBP1-c promoter reporter activity: transcription factor +/- ligand, control = 1.00
Protocol: as §3, §1, §2

hPPARg2 promoter = test: NHR-promoter luciferase screen, hPPARg2 promoter; format: cell-based, human; details: for Luc. act., normalized to lacZ / Normalized Luc. act., normalized to control: PPARG2 promoter, hormone receptor with or without its ligand; for Normalized Luc. act., normalized to control: relative to control; for Results of assays of transcription factor (+/- ligand) with hPPARg2: Table 6d, luciferase activity relative to control (control = 1.00)
Protocol: as §3, §1, §2

Substance	Luc. act., normalized to lacZ (mPgc1b promoter)	Normalized Luc. act., normalized to control (mPgc1b promoter)	luciferase activity normalized to lacZ activity and to a control, mPgc1b (mPgc1b promoter)	luciferase/LacZ, hPOMC (selected results) (hPOMC promoter)	Luc. act., normalized to lacZ (hPOMC promoter)	Normalized Luc. act., normalized to control (hPOMC promoter)	hPOMC promoter reporter activity (hPOMC promoter)	Luc. act., normalized to lacZ (hMDR1 promoter)	Normalized Luc. act., normalized to control (hMDR1 promoter)	hMDR1 promoter reporter activity (hMDR1 promoter)	Luc. act., normalized to lacZ (hTNFa promoter)	Normalized Luc. act., normalized to control (hTNFa promoter)	hTNFa promoter reporter activity (hTNFa promoter)	Luc. act., normalized to lacZ (SREBP1c promoter)	Normalized Luc. act., normalized to control (SREBP1c promoter)	mSREBP1-c promoter reporter activity (SREBP1c promoter)	Luc. act., normalized to lacZ (hPPARg2 promoter)	Normalized Luc. act., normalized to control (hPPARg2 promoter)	Results of assays of transcription factor (+/- ligand) with hPPARg2 (hPPARg2 promoter)
GR: Glucocorticoid Receptor (NR3C1), cDNA driver	3.2	0.3	0.27	0.2	0.7	0.2	0.16	0.1	0.4	0.39	463.3	0.5	0.47	150.3	0.5	0.47	2.3	1.1	1.15
PNR: Photoreceptor-specific Nuclear Receptor (NR2E3), cDNA driver	4.9	0.4	0.42		1.5	0.3	0.34	0.2	0.5	0.52	558.4	0.6	0.57	265.7	0.8	0.82	1.0	0.5	0.51
AR: Androsterone Receptor (NR3C4), cDNA driver	9.0	0.8	0.76		1.8	0.4	0.42	0.2	0.6	0.60	1019.9	1.0	1.04	418.4	1.3	1.30	2.7	1.3	1.34
VDR: Vitamin D Receptor (NR1I1), cDNA driver	6.85	0.6	0.58		3.8	0.9	0.90	0.3	0.9	0.90	986.3	1.0	1.00	460.1	1.4	1.43	2.1	1.0	1.03
RXRa: Retinoic X Receptor α (NR2B1), cDNA driver	8.6	0.7	0.72		2.6	0.6	0.61	0.2	0.5	0.51	954.8	1.0	0.97	521.9	1.6	1.62	1.3	0.7	0.67
NR4a1: NR4a1 (NR4A1; NUR77), nuclear hormone receptor cDNA driver	17.1	1.4	1.45	3.6	15.3	3.6	3.57	0.4	1.3	1.29	1575.8	1.6	1.60	408.2	1.3	1.27	1.6	0.8	0.81
ERR1: Estrogen Related Receptor α (NR3B1, ERRa), cDNA driver	8.8	0.7	0.75		2.7	0.6	0.63	0.4	1.2	1.20	1234.7	1.3	1.26	316.8	1.0	0.98	1.7	0.8	0.84
SF-1: Steroidogenic Factor 1 (NR5A1, SF1), cDNA driver	33.2	2.8	2.80		13.1	3.1	3.06	0.7	2.4	2.36	1900.9	1.9	1.93	916.0	2.8	2.84	2.2	1.1	1.09
PPARa: Peroxisome proliferator activated receptor α (NR1C1), cDNA driver	9.33	0.8	0.79		2.4	0.6	0.57	0.2	0.5	0.51	1107.9	1.1	1.13	935.6	2.9	2.90	2.4	1.2	1.20
PPARg: Peroxisome proliferator activated receptor γ (NR1C3), cDNA driver	11.35	1.0	0.96	0.6	2.8	0.6	0.65	0.3	0.8	0.83	1345.4	1.4	1.37	795.8	2.5	2.47	2.2	1.1	1.08
